From PMC6637479, “Identification of undecylenic acid as EAG channel inhibitor using surface plasmon resonance-based screen of KCNH channels” (BMC Pharmacology & Toxicology, 2019)

Biological target: T1, mEAG1 (Mus musculus, UniProt Q60603)
T1 construct: gene Kcnh1; PAS domain, residues 7–136 (N-terminal 6-His)
T1 sequence (Q60603 7-136): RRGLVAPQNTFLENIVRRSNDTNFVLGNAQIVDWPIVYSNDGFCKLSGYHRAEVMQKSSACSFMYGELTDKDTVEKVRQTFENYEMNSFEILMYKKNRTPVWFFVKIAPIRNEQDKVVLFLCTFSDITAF
Test: SPR steady-state dose response (Biacore […]); also inhibits full-length mEAG1 currents in inside-out patches, IC50 […]
Assay type: binding

## C=CCCCCCCCCC(=O)O [undecylenic acid]
  Kd: ~11 µM
